From ChEMBL document CHEMBL1909046, “DrugMatrix in vitro pharmacology data” come the findings set out here.

The target of assay [1] is Aldo-keto reductase family 1 member B1 (Rattus norvegicus, UniProt P07943). Description: biochemical. In kind it is tissue-based, Lens of camera-type eye.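 Also: inhibition of aldose reductase enzyme activity, measured with DL-glyceraldehyde as the substrate; in other assays of this panel Not Active means under 50% inhibition at 10 µM.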
Assay [2] deals with T1, Vasoactive intestinal polypeptide receptor 1 (Homo sapiens, UniProt P32241).
T1 sequence (P32241 whole entry): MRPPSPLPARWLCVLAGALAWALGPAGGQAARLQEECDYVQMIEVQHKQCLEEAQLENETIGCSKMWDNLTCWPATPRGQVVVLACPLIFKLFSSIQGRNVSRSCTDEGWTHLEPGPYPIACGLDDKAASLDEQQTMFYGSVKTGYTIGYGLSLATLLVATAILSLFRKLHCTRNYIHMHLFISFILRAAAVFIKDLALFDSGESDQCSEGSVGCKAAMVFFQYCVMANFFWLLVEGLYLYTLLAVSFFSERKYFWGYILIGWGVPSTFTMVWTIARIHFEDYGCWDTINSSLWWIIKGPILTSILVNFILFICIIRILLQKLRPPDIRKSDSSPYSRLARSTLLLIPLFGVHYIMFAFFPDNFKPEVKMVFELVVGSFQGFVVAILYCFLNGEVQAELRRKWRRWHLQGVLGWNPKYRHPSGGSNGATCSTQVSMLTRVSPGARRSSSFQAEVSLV
In kind it is cell membranes, Membrane. As to conditions: ht-29.

In another assay the target is T2, Cathepsin G (Homo sapiens, UniProt P08311).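 Also: inhibition of Cathepsin G enzyme activity, tested on an AMC-conjugated peptide substrate; in other assays of this panel Not Active means under 50% inhibition at 10 µM.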
T2 sequence (P08311 whole entry): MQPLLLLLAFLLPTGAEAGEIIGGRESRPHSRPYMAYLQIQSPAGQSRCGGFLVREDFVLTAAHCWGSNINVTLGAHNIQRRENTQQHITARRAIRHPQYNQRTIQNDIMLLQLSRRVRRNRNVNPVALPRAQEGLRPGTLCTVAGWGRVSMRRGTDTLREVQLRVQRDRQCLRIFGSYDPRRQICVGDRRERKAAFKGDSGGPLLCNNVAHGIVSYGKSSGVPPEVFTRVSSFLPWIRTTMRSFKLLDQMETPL
Description: biochemical. The following applies: neutrophil. The class given is tissue-based, Neutrophil.

Assay [3] concerns the target T3, 5-hydroxytryptamine receptor 1A (Rattus norvegicus, UniProt P19327). Also: in other assays of this panel Not Active means under 50% inhibition at 10 µM.
T3 sequence (P19327 whole entry): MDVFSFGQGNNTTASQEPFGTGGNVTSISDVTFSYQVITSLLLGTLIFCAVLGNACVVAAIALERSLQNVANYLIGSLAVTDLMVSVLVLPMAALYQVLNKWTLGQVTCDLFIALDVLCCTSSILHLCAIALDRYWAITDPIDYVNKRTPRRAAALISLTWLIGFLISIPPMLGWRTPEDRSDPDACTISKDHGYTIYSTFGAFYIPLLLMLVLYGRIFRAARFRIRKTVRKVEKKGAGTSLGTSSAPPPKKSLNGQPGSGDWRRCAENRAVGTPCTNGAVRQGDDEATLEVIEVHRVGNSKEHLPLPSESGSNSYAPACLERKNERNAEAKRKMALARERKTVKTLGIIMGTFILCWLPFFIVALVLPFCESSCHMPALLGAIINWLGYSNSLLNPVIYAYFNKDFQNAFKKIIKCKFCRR
In kind it is cell membranes, CHO-K1, Membrane.

Assay [4] in a line: DRUGMATRIX: Sigma2 radioligand binding (ligand: [3H] Ifenprodil). The class given is cell membranes, Rattus norvegicus, Wistar, Brain, Membrane. The following applies: Not Active = under 50% inhibition at 10 µM.
Assay [5] in a line: DRUGMATRIX: Atrial Natriuretic Factor (ANF) radioligand binding (ligand: [125I] ANF (rat)). In kind it is cell membranes, Cavia porcellus, Dunkin-Hartley, Adrenal gland, Membrane. The following applies: Not Active = under 50% inhibition at 10 µM.
Another assay concerns the target Melanocortin receptor 4 (Homo sapiens, UniProt P32245). In kind it is cell membranes, Membrane. As to conditions: hek293. Also: in other assays of this panel Not Active means under 50% inhibition at 10 µM.

Melanocortin receptor 4, sequence (P32245 whole entry): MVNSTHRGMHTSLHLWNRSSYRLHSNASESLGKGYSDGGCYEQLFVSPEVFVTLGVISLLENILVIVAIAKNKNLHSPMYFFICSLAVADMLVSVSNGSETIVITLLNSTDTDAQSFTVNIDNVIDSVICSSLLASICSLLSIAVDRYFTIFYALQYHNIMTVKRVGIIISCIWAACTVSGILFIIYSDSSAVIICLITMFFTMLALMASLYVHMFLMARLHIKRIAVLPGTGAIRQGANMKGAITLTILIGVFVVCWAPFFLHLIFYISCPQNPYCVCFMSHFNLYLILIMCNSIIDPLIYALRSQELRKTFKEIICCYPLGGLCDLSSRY

The term IC50 denotes the midpoint of a concentration-inhibition curve. As usually defined, the Ki is a dissociation constant, usually derived from enzyme kinetics or from competition with a known ligand. For the compound `CO[C@@H]1[C@@H](OC)[C@H](C)[C@@](O)(CC(=O)O)O[C@H]1[C@H](C)[C@H]1O[C@@]2(CC[C@@](C)([C@H]3CC[C@@](C)([C@@H]4O[C@@H]([C@H]5O[C@](C)(O)[C@H](C)C[C@@H]5C)C[C@@H]4O[C@@H]4C[C@H](OC)[C@@H](OC)[C@H](C)O4)O3)O2)C[C@H](O)[C@H]1C.N` [MADURAMICIN], the IC50 result (in assay [1]; in assay [2]; against Cathepsin G; in assay [3] (cho-k1); in assay [4]; in assay [5]) was “Not Active” each time. In addition, the IC50 result against Melanocortin receptor 4 is recorded as “Not Active”. Besides, the Ki result in assay [4] and in assay [5] was “Not Active” throughout.

As to `OC[C@@H](O)[C@@H](O)[C@H](O)[C@H](O)CO` [MANNITOL], the IC50 result (in assay [1]; in assay [2]; at Cathepsin G; in assay [3] (cho-k1); in assay [4]; in assay [5]) was “Not Active” each time. On Melanocortin receptor 4, the IC50 entry is “Not Active”. Besides, the Ki result in assay [4] and in assay [5] was “Not Active” in each case.

Turning to `COC(=O)Nc1nc2ccc(C(=O)c3ccccc3)cc2[nH]1` [MEBENDAZOLE], the half-maximal inhibitory concentration (IC50) result (in assay [1]; in assay [2]; against Cathepsin G; in assay [3] (cho-k1); in assay [4]; in assay [5]) was “Not Active” throughout. The IC50 result against Melanocortin receptor 4 is “Not Active”. In addition, the Ki result in assay [4] and in assay [5] was “Not Active” each time.

`Cc1ccc(Cl)c(Nc2ccccc2C(=O)O)c1Cl` [MECLOFENAMIC ACID]: the IC50 result (in assay [1]; in assay [2]; at Cathepsin G; in assay [3] (cho-k1); in assay [4]; in assay [5]) was “Not Active” throughout. In addition, on Melanocortin receptor 4, the IC50 entry is given as “Not Active”. Further, the Ki entry in assay [4] and in assay [5] was “Not Active” each time.

Consider `CC(=O)O[C@]1(C(C)=O)CC[C@H]2[C@@H]3C[C@H](C)C4=CC(=O)CC[C@]4(C)[C@H]3CC[C@@]21C` [MEDROXYPROGESTERONE ACETATE], for which the IC50 result (in assay [1]; in assay [2]; against Cathepsin G; in assay [3] (cho-k1); in assay [4]; in assay [5]) was “Not Active” throughout. In addition, the IC50 entry on Melanocortin receptor 4 is reported as “Not Active”. In addition, the Ki entry in assay [4] and in assay [5] was “Not Active” throughout.

On to `Cc1cnc(NC(=O)C2=C(O)c3ccccc3S(=O)(=O)N2C)s1` [MELOXICAM], for which the IC50 entry (in assay [1]; in assay [2]; on Cathepsin G; in assay [3] (cho-k1); in assay [4]; in assay [5]) was “Not Active” in each case. In addition, the IC50 result against Melanocortin receptor 4 was “Not Active”. Moreover, the Ki result in assay [4] and in assay [5] was “Not Active” throughout.

For `CN1C[C@H](CNC(=O)OCc2ccccc2)C[C@@H]2c3cccc4c3c(cn4C)C[C@H]21` [METERGOLINE], the IC50 entry in assay [1] is “Not Active”; in assay [2], “Not Active”; at Cathepsin G it was “Not Active”; in assay [3] (read-out: IC50) it was 6.17 nM; in assay [4], “Not Active”; in assay [5] it was “Not Active”. For the same compound, the IC50 result on Melanocortin receptor 4 is listed as “Not Active”. Further, the Ki was 3.53 nM in assay [3] (read-out: Ki), “Not Active” in assay [4] and “Not Active” in assay [5].

`C[N+]1(C)[C@@H]2C[C@@H](OC(=O)[C@H](CO)c3ccccc3)C[C@H]1[C@@H]1O[C@@H]12.[Br-]` [METHSCOPOLAMINE BROMIDE]: the concentration for half-maximal inhibition (IC50) entry (in assay [1]; in assay [2]; against Cathepsin G; in assay [3] (cho-k1); in assay [4]; in assay [5]) was “Not Active” in each case. In addition, the IC50 entry at Melanocortin receptor 4 is “Not Active”. The Ki result in assay [4] and in assay [5] was “Not Active” in each case.

For the compound `CCN(CC)CCNC(=O)c1cc(Cl)c(N)cc1OC` [METOCLOPRAMIDE], the IC50 entry (in assay [1]; in assay [2]; at Cathepsin G; in assay [3] (cho-k1); in assay [4]; in assay [5]) was “Not Active” in each case. Also, the IC50 result against Melanocortin receptor 4 is “Not Active”. The Ki entry in assay [4] and in assay [5] was “Not Active” in each case.

As to `CC[C@H](C)C(=O)O[C@H]1CCC=C2C=C[C@H](C)[C@H](CC[C@@H]3C[C@@H](O)CC(=O)O3)[C@H]21` [MEVASTATIN], the IC50 entry (in assay [1]; in assay [2]; against Cathepsin G; in assay [3] (cho-k1); in assay [4]; in assay [5]) was “Not Active” in each case. Moreover, the IC50 result against Melanocortin receptor 4 is listed as “Not Active”. Besides, the Ki result in assay [4] and in assay [5] was “Not Active” each time.

Consider `CC#C[C@]1(O)CC[C@H]2[C@@H]3CCC4=CC(=O)CCC4=C3[C@@H](c3ccc(N(C)C)cc3)C[C@@]21C` [MIFEPRISTONE], for which the IC50 entry (in assay [1]; in assay [2]; at Cathepsin G; in assay [3] (cho-k1); in assay [4]; in assay [5]) was “Not Active” throughout. Also, the IC50 entry against Melanocortin receptor 4 is reported as “Not Active”. In addition, the Ki result in assay [4] and in assay [5] was “Not Active” in each case.

On to `Cc1[nH]c(=O)c(C#N)cc1-c1ccncc1` [MILRINONE], for which the IC50 result (in assay [1]; in assay [2]; on Cathepsin G; in assay [3] (cho-k1); in assay [4]; in assay [5]) was “Not Active” throughout. For the same compound, the IC50 result against Melanocortin receptor 4 is recorded as “Not Active”. In addition, the Ki entry in assay [4] and in assay [5] was “Not Active” throughout.

Regarding `CO[C@@]12[C@H](COC(N)=O)C3=C(C(=O)C(C)=C(N)C3=O)N1C[C@@H]1N[C@@H]12` [MITOMYCIN], the IC50 entry (in assay [1]; in assay [2]; against Cathepsin G; in assay [3] (cho-k1); in assay [4]; in assay [5]) was “Not Active” throughout. Moreover, the IC50 result against Melanocortin receptor 4 is reported as “Not Active”. For the same compound, the Ki result in assay [4] and in assay [5] was “Not Active” in each case.

Consider `CCOc1cc(N)c(Cl)cc1C(=O)NCC1CN(Cc2ccc(F)cc2)CCO1` (centres undefined) [MOSAPRIDE], for which the IC50 result (in assay [1]; in assay [2]; on Cathepsin G; in assay [3] (cho-k1); in assay [4]; in assay [5]) was “Not Active” throughout. The IC50 entry at Melanocortin receptor 4 is listed as “Not Active”. Further, the Ki entry in assay [4] and in assay [5] was “Not Active” in each case.

Turning to `CCN(CC)N=O` [N-NITROSODIETHYLAMINE], the half-inhibitory concentration (IC50) result (in assay [1]; in assay [2]; on Cathepsin G; in assay [3] (cho-k1); in assay [4]; in assay [5]) was “Not Active” in each case. For the same compound, the IC50 result against Melanocortin receptor 4 was “Not Active”. Further, the Ki result in assay [4] and in assay [5] was “Not Active” in each case.

Take `O=C1CC[C@@]2(O)[C@H]3Cc4ccc(O)c5c4[C@@]2(CCN3CC2CC2)[C@H]1O5` [NALTREXONE]: the IC50 entry (in assay [1]; in assay [2]; at Cathepsin G; in assay [3] (cho-k1); in assay [4]; in assay [5]) was “Not Active” each time. The half-inhibitory concentration (IC50) entry at Melanocortin receptor 4 is on record as “Not Active”. The inhibition constant (Ki) entry in assay [4] and in assay [5] was “Not Active” in each case.

As to `Oc1ccc(/C=C/c2cc(O)cc(O)c2)cc1` [RESVERATROL], the IC50 entry (in assay [1]; in assay [2]; against Cathepsin G; in assay [3] (cho-k1); in assay [4]; in assay [5]) was “Not Active” each time. For the same compound, the half-maximal inhibitory concentration (IC50) entry on Melanocortin receptor 4 is “Not Active”. The Ki result in assay [4] and in assay [5] was “Not Active” throughout.
